17 compounds from patent US12679848B2, “Plasma kallikrein inhibitors” (Merck Sharp & Dohme LLC, priority 2020, dated 2026) can be followed below.

In one assay the target is human factor XIa (Homo sapiens, UniProt P03951). The assay can be described thus: Factor XIa Assay. Type of assay: biochemical. To be noted: human factor XIa 0.04 nM, substrate GPR-AFC, 30 min pre-incubation, 25° C., pH 7.4; read-out: FXIa IC50.
The target of another assay is T1, Human plasma kallikrein (Homo sapiens, UniProt P03952).
T1 construct: yields a heavy chain (371 amino acids) and a light chain (248 amino acids); The active site of plasma kallikrein is contained in the light chain; purchased Enzyme Research Laboratories
T1 sequence (P03952 391-638 limits assumed): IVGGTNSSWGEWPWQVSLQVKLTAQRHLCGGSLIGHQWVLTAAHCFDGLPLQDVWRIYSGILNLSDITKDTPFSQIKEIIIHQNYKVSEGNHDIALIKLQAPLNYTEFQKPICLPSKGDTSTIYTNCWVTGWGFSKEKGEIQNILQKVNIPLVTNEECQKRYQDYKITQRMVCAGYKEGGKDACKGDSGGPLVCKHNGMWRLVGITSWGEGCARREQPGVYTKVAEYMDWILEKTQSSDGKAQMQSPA
T1 sequence (P03952 20-390 partner limits assumed): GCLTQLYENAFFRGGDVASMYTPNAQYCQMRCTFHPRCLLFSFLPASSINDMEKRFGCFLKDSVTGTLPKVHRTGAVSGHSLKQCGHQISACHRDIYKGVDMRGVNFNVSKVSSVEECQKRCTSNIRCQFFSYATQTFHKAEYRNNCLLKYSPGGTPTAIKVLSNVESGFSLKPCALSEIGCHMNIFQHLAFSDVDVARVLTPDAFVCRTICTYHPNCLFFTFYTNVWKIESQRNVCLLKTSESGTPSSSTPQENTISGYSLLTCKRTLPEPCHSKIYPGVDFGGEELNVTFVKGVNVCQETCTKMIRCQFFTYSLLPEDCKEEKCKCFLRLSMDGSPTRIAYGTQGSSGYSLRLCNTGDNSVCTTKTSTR
The assay can be described thus: Plasma Kallikrein Assay. Type of assay: biochemical. To be noted: purified Human plasma kallikrein 0.5 nM, substrate Acetyl-K-P-R-AFC, HEPES pH 7.4; read-out: PKal IC50. A digest of the protocol:
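Purified human plasma kallikrein at 0.5 nM final with substrate Acetyl-K-P-R-AFC at […], in 50 mM HEPES pH 7.4, 150 mM NaCl, 5 mM CaCl2, 0.1% PEG 8000, at rt or 37° C after enzyme-inhibitor equilibration. IC50 from four-parameter logistic fit of fluorescence rate; Ki via Cheng-Prusoff.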

human factor XIa, sequence (P03951 388-625 limits assumed): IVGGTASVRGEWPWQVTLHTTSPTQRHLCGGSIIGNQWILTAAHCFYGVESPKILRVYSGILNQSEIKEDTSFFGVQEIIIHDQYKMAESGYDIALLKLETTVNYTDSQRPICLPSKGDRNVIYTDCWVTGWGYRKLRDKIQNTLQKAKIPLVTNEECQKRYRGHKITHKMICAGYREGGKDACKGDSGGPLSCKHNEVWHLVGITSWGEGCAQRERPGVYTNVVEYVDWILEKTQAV
human factor XIa, sequence (P03951 19-387 partner limits assumed): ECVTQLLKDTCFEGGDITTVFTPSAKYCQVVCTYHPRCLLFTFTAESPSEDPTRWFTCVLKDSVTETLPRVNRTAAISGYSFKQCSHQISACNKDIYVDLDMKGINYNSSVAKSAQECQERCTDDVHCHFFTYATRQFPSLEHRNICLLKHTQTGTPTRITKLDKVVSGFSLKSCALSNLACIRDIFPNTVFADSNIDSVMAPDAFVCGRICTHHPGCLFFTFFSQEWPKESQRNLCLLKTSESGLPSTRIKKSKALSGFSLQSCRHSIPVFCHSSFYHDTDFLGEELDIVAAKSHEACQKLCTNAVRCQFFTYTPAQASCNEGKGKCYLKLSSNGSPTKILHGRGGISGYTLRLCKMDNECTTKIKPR

`CCC(c1ccccc1)n1ncc(C(=O)N2CCC[C@@]3(C2)OC(=O)Nc2ccc(Cl)c(F)c23)c1N` (single isomer, unassigned) [Example 117, (R)-1'-(5-Amino-1-((R or S)-1-phenylpropyl)-1H-pyrazole-4-carbonyl)-6-chloro-5-fluorospiro[benzo[d][1,3]oxazine-4,3'-piperidin]-2(1H)-one]: the values for the IC50 at human factor XIa and at Human plasma kallikrein were 30 nM and 0.9 nM, respectively.

Turning to `CC(C)n1ncc(C(=O)N2CCC[C@@]3(C2)OC(=O)Nc2ccc(Cl)c(F)c23)c1N` [Example 34, (R)-1'-(5-Amino-1-isopropyl-1H-pyrazole-4-carbonyl)-6-chloro-5-fluorospiro[benzo[d][1,3]oxazine-4,3'-piperidin]-2(1H)-one], the values for the IC50 at human factor XIa and on Human plasma kallikrein were 1200 nM and 8.9 nM, respectively.

`COCCn1ncc(C(=O)N2CCC[C@@]3(C2)OC(=O)Nc2ccc(Cl)c(F)c23)c1N` [Example 24, (R)-1'-(5-Amino-1-(2-methoxyethyl)-1H-pyrazole-4-carbonyl)-6-chloro-5-fluorospiro[benzo[d][1,3]oxazine-4,3'-piperidin]-2(1H)-one]: the figures for the IC50 on human factor XIa and at Human plasma kallikrein were 425 nM and 10.9 nM, respectively.

For the compound `Nc1c(C(=O)N2CCC[C@@]3(C2)OC(=O)Nc2ccc(Cl)c(F)c23)cnn1CC(F)(F)F` [Example 1, (R)-1′-(5-Amino-1-(2,2,2-trifluoroethyl)-1H-pyrazole-4-carbonyl)-6-chloro-5-fluorospiro[benzo[d][1,3]oxazine-4,3′-piperidin]-2(1H)-one], the IC50 (commonly the point on the concentration scale where inhibition reaches its midpoint) at human factor XIa came to 408 nM; on Human plasma kallikrein, 11.2 nM.

Turning to `Nc1c(C(=O)N2CCC[C@@]3(C2)OC(=O)Nc2ccc(Cl)c(F)c23)cnn1C(c1ccccc1)C(F)(F)F` (single isomer, unassigned) [Example 122, (R)-1'-(5-Amino-1-((R or S)-2,2,2-trifluoro-1-phenylethyl)-1H-pyrazole-4-carbonyl)-6-chloro-5-fluorospiro[benzo[d][1,3]oxazine-4,3'-piperidin]-2(1H)-one], the concentration for half-maximal inhibition (IC50) on human factor XIa was 95 nM; at Human plasma kallikrein it was 1 nM.

Turning to `Cc1noc(C)c1Cn1ncc(C(=O)N2CCC[C@@]3(C2)OC(=O)Nc2ccc(Cl)c(F)c23)c1N` [Example 11, (R)-1'-(5-Amino-1-((3,5-dimethylisoxazol-4-yl)methyl)-1H-pyrazole-4-carbonyl)-6-chloro-5-fluorospiro[benzo[d][1,3]oxazine-4,3'-piperidin]-2(1H)-one], the IC50 worked out at 438 nM on human factor XIa and 1.7 nM on Human plasma kallikrein.

For the compound `Nc1c(C(=O)N2CCC[C@@]3(C2)OC(=O)Nc2ccc(Cl)c(F)c23)cnn1C(c1ccccc1)C(F)(F)F` (single isomer, unassigned) [Example 123], the IC50 at human factor XIa was determined as 74 nM; on Human plasma kallikrein, 0.9 nM.

Regarding `Nc1c(C(=O)N2CCC[C@@]3(C2)OC(=O)Nc2ccc(Cl)c(F)c23)cnn1C1(C(F)(F)F)CCC1` [Example 47, (R)-1'-(5-Amino-1-(1-(trifluoromethyl)cyclobutyl)-1H-pyrazole-4-carbonyl)-6-chloro-5-fluorospiro[benzo[d][1,3]oxazine-4,3'-piperidin]-2(1H)-one], the IC50 amounted to 731 nM at human factor XIa and 6.3 nM on Human plasma kallikrein.

For `CC1(C)CN(C(=O)c2cnn(-c3ccccc3)c2N)C[C@]2(C1)OC(=O)Nc1ccc(Cl)c(F)c12` [Example 69, (R)-1'-(5-Amino-1-phenyl-1H-pyrazole-4-carbonyl)-6-chloro-5-fluoro-5',5'-dimethylspiro[benzo[d][1,3]oxazine-4,3'-piperidin]-2(1H)-one], the half-inhibitory concentration (IC50) was found to be 4590 nM at human factor XIa and 41.7 nM at Human plasma kallikrein.

`Cc1ccc(F)cc1-n1ncc(C(=O)N2CCC[C@@]3(C2)OC(=O)Nc2ccc(Cl)c(F)c23)c1N` [Example 88, (R)-1'-(5-Amino-1-(5-fluoro-2-methylpheny1)-1H-pyrazole-4-carbonyl)-6-chloro-5-fluorospiro[benzo[d][1,3]oxazine-4,3'-piperidin]-2(1H)-one]: the IC50 was found to be 1690 nM on human factor XIa and 47 nM on Human plasma kallikrein.

`Nc1c(C(=O)N2CCC[C@@]3(C2)OC(=O)Nc2ccc(Cl)c(F)c23)cnn1-c1c(Cl)cncc1Cl` [Example 102, (R)-1'-(5-Amino-1-(3,5-dichloropyridin-4-y1)-1H-pyrazole-4-carbonyl)-6-chloro-5-fluorospiro[benzo[d][1,3]oxazine-4,3'-piperidin]-2(1H)-one]: the IC50 amounted to 12 nM on human factor XIa and 3.8 nM on Human plasma kallikrein.

For `CC(C)c1ccccc1-n1ncc(C(=O)N2CCC[C@@]3(C2)OC(=O)Nc2ccc(Cl)c(F)c23)c1N` [Example 81, (R)-1'-(5-Amino-1-(2-isopropylphenyl)-1H-pyrazole-4-carbonyl)-6-chloro-5-fluorospiro[benzo[d][1,3]oxazine-4,3'-piperidin]-2(1H)-one], the IC50 turned out to be 353 nM at human factor XIa and 5.5 nM at Human plasma kallikrein.

Consider `CC(C1CC1)(n1ncc(C(=O)N2CCC[C@@]3(C2)OC(=O)Nc2ccc(Cl)c(F)c23)c1N)C(F)(F)F` (single isomer, unassigned) [Example 127, (R)-1'-(5-Amino-1-((S or R)-2-cyclopropyl-1,1,1-trifluoropropan-2-y1)-1H-pyrazole-4-carbonyl)-6-chloro-5-fluorospiro[benzo[d][1,3]oxazine-4,3'-piperidin]-2(1H)-one], for which the IC50 on human factor XIa came out at 1020 nM; on Human plasma kallikrein it was 6.8 nM.

Consider `Nc1c(C(=O)N2CCC[C@@]3(C2)OC(=O)Nc2ccc(Cl)c(F)c23)cnn1C(C1CC1)C(F)(F)F` (single isomer, unassigned) [Example 124, (R)-1'-(5-Amino-1-((R or S)-1-cyclopropyl-2,2,2-trifluoroethyl)-1H-pyrazole-4-carbonyl)-6-chloro-5-fluorospiro[benzo[d][1,3]oxazine-4,3'-piperidin]-2(1H)-one], for which the IC50 on human factor XIa amounted to 75 nM; at Human plasma kallikrein it was 1.4 nM.

For the compound `Nc1c(C(=O)N2CCC[C@@]3(C2)OC(=O)Nc2ccc(Cl)c(F)c23)cnn1CC(F)(F)C(F)(F)F` [Example 48, (R)-1'-(5-Amino-1-(2,2,3,3,3-pentafluoropropyl)-1H-pyrazole-4-carbonyl)-6-chloro-5-fluorospiro[benzo[d][1,3]oxazine-4,3'-piperidin]-2(1H)-one], the IC50 at human factor XIa came to 516 nM; on Human plasma kallikrein, 13.1 nM.

Consider `Nc1c(C(=O)N2CCC[C@@]3(C2)OC(=O)Nc2ccc(Cl)c(F)c23)cnn1-c1ccc(N2CCOC2=O)cc1` [Example 75, (R)-1'-(5-Amino-1-(4-(2-oxooxazolidin-3-yl)phenyl)-1H-pyrazole-4-carbonyl)-6-chloro-5-fluorospiro[benzo[d][1,3]oxazine-4,3'-piperidin]-2(1H)-one], for which the results for the 50% inhibitory concentration (IC50) on human factor XIa and on Human plasma kallikrein were 4720 nM and 50.7 nM, respectively.

Take `Nc1c(C(=O)N2CCC[C@@]3(C2)OC(=O)Nc2ccc(Cl)c(F)c23)cnn1-c1ccccc1OC1CC1` [Example 89, (R)-1'-(5-Amino-1-(2-cyclopropoxyphenyl)-1H-pyrazole-4-carbonyl)-6-chloro-5-fluorospiro[benzo[d][1,3]oxazine-4,3'-piperidin]-2(1H)-one]: the IC50 at human factor XIa came out at 162 nM; on Human plasma kallikrein, 1.6 nM.
